# Source: EP0569777A2 (Bayer Corporation, priority 1992, dated 1993)
# Where a SMILES comes first, the peptide text is derived from it. [ ]: non-standard residue; d: D form. The star is where a group is joined. Sta = CC(C)C[C@H](N)[C@@H](O)CC(=O)O; Isovaleryl = CC(C)CC(=O)*
# Assays:
# [1] = molecular target: T1, human brain P-2 enzyme (peak B), aspartic protease identified as cathepsin D (Homo sapiens, UniProt P07339); experiment: Immunoblot assay of holo-APP 695 degradation by P-2 enzyme (peak B, 15-25 kDa gel filtration region); format: biochemical; settings: 100 uM pepstatin A in DMSO; P-2 enzyme 2.54 ug/ml, APP 168 nM, Mes buffer pH 6.5, 26 hr, 37°C; Figure 7
# T1 sequence (P07339 with tags, fused parts or gaps): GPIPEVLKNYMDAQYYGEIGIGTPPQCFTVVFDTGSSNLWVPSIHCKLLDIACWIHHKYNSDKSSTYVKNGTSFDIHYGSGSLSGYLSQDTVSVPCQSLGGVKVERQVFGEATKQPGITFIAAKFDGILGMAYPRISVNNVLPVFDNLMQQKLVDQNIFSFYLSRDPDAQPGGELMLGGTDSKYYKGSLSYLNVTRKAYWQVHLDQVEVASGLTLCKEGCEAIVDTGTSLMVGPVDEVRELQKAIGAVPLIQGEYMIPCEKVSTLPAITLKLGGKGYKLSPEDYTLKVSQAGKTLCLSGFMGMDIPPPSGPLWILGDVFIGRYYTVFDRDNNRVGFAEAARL
# Protocol: Reactions (32 ul) were initiated at 37°C by APP addition to achieve the following initial component conditions: P-2 enzyme (2.54 ug/ml) fraction from the 15-25 kDa region of gel filtration (Figure 6); APP (168 nM), in 96 mM Mes buffer pH 6.5. Reactions were terminated after 26 hr by addition of 15 ul of 3X sample buffer, and subject to immunoblot analysis using a 1/1000 dilution of the rabbit polyclonal antiserum to the APP C-terminus. […] The effect of incubation of APP for 0hr (lanes 2 and 30) and 26 hr (lanes 3 and 28) are also shown. Lanes 6, 10, 14, 17, 21 and 25 contained enzyme alone. Lanes 4, 8, 12, 19, 23, and […] contained the C-100 standard. Prestained molecular weight markers are present in lanes 1 and 29. The 18 and 28 kDa C-terminal product fragments are located with arrows.
# ii) Solubilization. […] Absorbance of column effluent was monitored at 280 nm using a Pharmacia UV-M detector and a Kippen-zonen chart recorder. […] In the initial studies, eluted fractions were monitored for A280 nm, total protein (Bradford assay), and peptidase activity (as decsribed in Examples 2 and 3). […] Fractions were monitored for A 280 nm, total protein (Bradford assay), peptidase activity, and activity for C-terminal processing of recombinant APP. […]
# [2] = molecular target: T1, human brain P-2 enzyme (peak B), aspartic protease identified as cathepsin D; experiment: N-dansyl peptide (SEQ ID NO: 7) peptidase assay with HPLC detection, P-2 enzyme (peak B); format: biochemical; settings: pepstatin A 213 uM; P-2 enzyme 17.5 ug/ml, N-Dansyl-peptide 24 uM, pH 5.0, 37 C; Figure 10
# Protocol: Reactions (30 ul) were initiated at 37 C by enzyme/inhibitor addition thereby achieving the following t=0 component concentrations: Cathepsin D (2.8 ug/ml), or P-2 enzyme from figure 6 (17.5 ug/ml), N-Dansyl-peptide (24 uM), captopril (0.3 mM) in a cocktail buffer comprising 130 mM in each of acetate, Mes and Tris pH 5.0. Samples contained either pepstatin A (213 uM in 3% v/v final methanol) or an equivalent final concentration of methanol only. At 0, 2, 4, 8 and 24hr, reactions were terminated by addition of 12 % (v/v) TFA (10 ul) and subject to HPLC analysis according to example 2 and 3.
# • i) Incubations. […] Incubation with ion-exchange fractions was performed at 37°C for 24 hrs, after which reactions were terminated by adjusting to 3% (v/v) final in TFA. • ii) HPLC quantification of proteolytic products. HPLC analysis was performed using a Hewlet-Packard HP1090 complete with binary solvent delivery, heated column compartment, and auto injector.
smiles,measurement,setting,value
CC(C)CC(=O)N[C@H](C(=O)N[C@H](C(=O)N[C@@H](CC(C)C)[C@@H](O)CC(=O)N[C@@H](C)C(=O)N[C@@H](CC(C)C)[C@@H](O)CC(=O)O)C(C)C)C(C)C [pepstatin A] (Isovaleryl-VV[Sta]A[Sta]-OH),Inhibition of peak B APP degrading activity,[1],quantitative inhibition
same,Inhibition of peptidase reaction catalyzed by the P-2 enzyme preparation,[2],inhibited
